The term IC50 denotes the concentration that gives 50% inhibition. The low end stands for greater potency in that assay, the high end for weaker potency in that assay.

The assay has as its target Glutamate receptor ionotropic, NMDA 1 (Rattus norvegicus, UniProt P35439). Nature of the assay: Ability of compound to compete with [3H]glycine for the strychnine-insensitive NMDA receptor glycine binding sites on rat cortical and hippocampus. It counts as tissue-based.
Molecule `CN(C(=O)c1ccccc1)c1c(C(=O)O)[nH]c2cc(Cl)ccc12` gave an IC50 of 110 nM.

On to `CN(C(=O)c1ccccc1)c1c(C(=O)O)[nH]c2cc(Cl)cc(Cl)c12`, for which the IC50 came to 270 nM. This IC50 is about 2.5-fold higher than that of the molecule before.

On to `O=C(Nc1c(C(=O)O)[nH]c2cc(Cl)ccc12)c1ccccc1`, for which the IC50 was 3000 nM. Against the preceding molecule, the IC50 is about 11-fold higher.

`O=C(Nc1c(C(=O)O)[nH]c2cc(Cl)cc(Cl)c12)c1ccccc1` came in with an IC50 of 17000 nM.

`O=C(O)C(=O)Nc1c(C(=O)O)[nH]c2cc(Cl)cc(Cl)c12` displayed an IC50 of 170 nM.

With `O=C(O)CSc1c(C(=O)O)[nH]c2cc(Cl)cc(Cl)c12`, the IC50 is 100 nM.

For `O=C(O)CN(C(=O)c1ccccc1)c1c(C(=O)O)[nH]c2cc(Cl)cc(Cl)c12`, the IC50 was determined as 400 nM.

Consider `CN(C(=O)C(=O)O)c1c(C(=O)O)[nH]c2cc(Cl)cc(Cl)c12`, for which the concentration for half-maximal inhibition (IC50) is 9500 nM. Against the preceding molecule, the IC50 is about 24-fold higher.

`O=C(O)c1cc(O)c2c(Cl)cc(Cl)cc2n1` displayed an IC50 of 140 nM.

For the origin of these results see ChEMBL document CHEMBL1150503, “Design, synthesis and molecular modeling of 3-acylamino-2- Carboxyindole NMDA receptor glycine-site antagonists” (Bioorg Med Chem Lett, 1991).
